Numbers after ± are expanded uncertainties.
Experiment: xn = mol fraction of the nth substance listed
Conditions: surface light scattering

CC(C)CC(C)(C)C [2,2,4-trimethylpentane] + CCCCCCCO
x1 = 1
Conditions	surface tension liquid-gas [mN/m]
298.15 K	18.3 ± 0.18
303.15 K	17.9 ± 0.18
308.15 K	17.43 ± 0.18
313.15 K	17.09 ± 0.17
318.15 K	16.56 ± 0.17
323.15 K	16.2 ± 0.16

CC(C)CC(C)(C)C [2,2,4-trimethylpentane] + CCCCCCO
x1 = 1
Conditions	surface tension liquid-gas [mN/m]
298.15 K	18.3 ± 0.18
303.15 K	17.9 ± 0.18
308.15 K	17.43 ± 0.18
313.15 K	17.09 ± 0.17
318.15 K	16.56 ± 0.17
323.15 K	16.2 ± 0.16

CC(C)CC(C)(C)C [2,2,4-trimethylpentane] + CCCCCO
x1 = 1
Conditions	surface tension liquid-gas [mN/m]
298.15 K	18.3 ± 0.18
303.15 K	17.9 ± 0.18
308.15 K	17.43 ± 0.18
313.15 K	17.09 ± 0.17
318.15 K	16.56 ± 0.17
323.15 K	16.2 ± 0.16

CC(C)CC(C)(C)C [2,2,4-trimethylpentane] + CCCO
surface tension liquid-gas [mN/m]
Conditions	x1 = 0.1	x1 = 0.2	x1 = 0.3	x1 = 0.4	x1 = 0.4999	x1 = 0.5996	x1 = 0.6998	x1 = 0.7995	x1 = 0.9	x1 = 1
298.15 K	22.09 ± 0.23	21.18 ± 0.22	20.58 ± 0.21	20.05 ± 0.2	19.57 ± 0.2	19.22 ± 0.19	18.96 ± 0.19	18.69 ± 0.19	18.51 ± 0.19	18.3 ± 0.18
303.15 K	21.65 ± 0.22	20.73 ± 0.21	20.12 ± 0.21	19.6 ± 0.2	19.12 ± 0.19	18.77 ± 0.19	18.53 ± 0.19	18.26 ± 0.18	18.09 ± 0.18	17.9 ± 0.18
308.15 K	21.23 ± 0.22	20.28 ± 0.21	19.66 ± 0.2	19.12 ± 0.19	18.64 ± 0.19	18.29 ± 0.19	18.05 ± 0.18	17.78 ± 0.18	17.62 ± 0.18	17.43 ± 0.18
313.15 K	20.77 ± 0.21	19.81 ± 0.2	19.19 ± 0.2	18.66 ± 0.19	18.19 ± 0.19	17.85 ± 0.18	17.63 ± 0.18	17.39 ± 0.18	17.25 ± 0.17	17.09 ± 0.17
318.15 K	20.31 ± 0.21	19.31 ± 0.2	18.67 ± 0.19	18.13 ± 0.18	17.65 ± 0.18	17.31 ± 0.18	17.09 ± 0.17	16.85 ± 0.17	16.72 ± 0.17	16.56 ± 0.17
323.15 K	19.84 ± 0.2	18.82 ± 0.19	18.18 ± 0.19	17.64 ± 0.18	17.17 ± 0.17	16.84 ± 0.17	16.65 ± 0.17	16.43 ± 0.17	16.33 ± 0.16	16.2 ± 0.2

CC(C)CC(C)(C)C [2,2,4-trimethylpentane] + CCO
surface tension liquid-gas [mN/m]
Conditions	x1 = 0.0429	x1 = 0.0916	x1 = 0.1474	x1 = 0.2119	x1 = 0.2874	x1 = 0.3769	x1 = 0.4848	x1 = 0.6173	x1 = 0.784	x1 = 1
288.15 K	22.27 ± 0.23	21.88 ± 0.23	21.47 ± 0.22	21.11 ± 0.22	20.74 ± 0.21	20.4 ± 0.21	20.03 ± 0.2	19.75 ± 0.2	19.5 ± 0.2	19.14 ± 0.19
298.15 K	21.38 ± 0.22	20.96 ± 0.22	20.54 ± 0.21	20.17 ± 0.21	19.8 ± 0.2	19.46 ± 0.2	19.09 ± 0.19	18.83 ± 0.19	18.62 ± 0.19	18.3 ± 0.18
308.15 K	20.54 ± 0.21	20.11 ± 0.21	19.66 ± 0.2	19.28 ± 0.2	18.9 ± 0.19	18.55 ± 0.19	18.17 ± 0.18	17.92 ± 0.18	17.73 ± 0.18	17.43 ± 0.18
318.15 K	19.77 ± 0.2	19.31 ± 0.2	18.85 ± 0.19	18.45 ± 0.19	18.05 ± 0.18	17.7 ± 0.18	17.31 ± 0.18	17.05 ± 0.17	16.86 ± 0.17	16.56 ± 0.17

CCO [ethanol] + CC(C)CC(C)(C)C
x2 = 0
Conditions	surface tension liquid-gas [mN/m]
288.15 K	22.72 ± 0.23
298.15 K	21.85 ± 0.23
308.15 K	21.04 ± 0.22
318.15 K	20.29 ± 0.21

CCO [ethanol] + CCCCCCC
x2 = 0
Conditions	surface tension liquid-gas [mN/m]
293.15 K	22.31 ± 0.23
298.15 K	21.85 ± 0.23
303.15 K	21.41 ± 0.22
308.15 K	21.04 ± 0.22
313.15 K	20.62 ± 0.21
318.15 K	20.29 ± 0.21

CCCCCCCO [heptan-1-ol] + CC(C)CC(C)(C)C
surface tension liquid-gas [mN/m]
Conditions	x2 = 0	x2 = 0.1003	x2 = 0.2002	x2 = 0.3002	x2 = 0.3999	x2 = 0.5	x2 = 0.6	x2 = 0.6999	x2 = 0.7999	x2 = 0.8999
298.15 K	26.46 ± 0.3	24.78 ± 0.27	23.26 ± 0.25	22.3 ± 0.24	21.46 ± 0.23	20.67 ± 0.22	20.04 ± 0.21	19.59 ± 0.2	19.07 ± 0.19	18.72 ± 0.19
303.15 K	25.93 ± 0.29	24.13 ± 0.27	22.69 ± 0.25	21.74 ± 0.23	20.9 ± 0.22	20.14 ± 0.21	19.53 ± 0.2	19.1 ± 0.2	18.61 ± 0.19	18.29 ± 0.18
308.15 K	25.43 ± 0.28	23.63 ± 0.26	22.12 ± 0.24	21.15 ± 0.23	20.32 ± 0.21	19.55 ± 0.2	18.97 ± 0.2	18.55 ± 0.19	18.08 ± 0.18	17.81 ± 0.18
313.15 K	24.95 ± 0.28	23.15 ± 0.26	21.61 ± 0.23	20.65 ± 0.22	19.83 ± 0.21	19.08 ± 0.2	18.51 ± 0.19	18.13 ± 0.19	17.68 ± 0.18	17.45 ± 0.18
318.15 K	24.55 ± 0.27	22.72 ± 0.25	21.11 ± 0.23	20.14 ± 0.22	19.3 ± 0.2	18.55 ± 0.19	17.97 ± 0.19	17.59 ± 0.18	17.14 ± 0.17	16.92 ± 0.17
323.15 K	24.03 ± 0.27	22.13 ± 0.24	20.53 ± 0.22	19.6 ± 0.21	18.77 ± 0.2	18 ± 0.19	17.48 ± 0.18	17.12 ± 0.18	16.71 ± 0.17	16.53 ± 0.17

Source: the NIST ThermoML archive (doi:10.1021/acs.jced.5b00903)
